The values that follow come from US9516880B2, “Herbicidal and fungicidal 5-oxy-substituted 3-phenylisoxazoline-5-carboxamides and 5-oxy-substituted 3-phenylisoxazoline-5-thioamides” (BAYER CROPSCIENCE AG, priority 2012, dated 2016).

For one experiment, the system named is Botrytis cinerea. Nature of the experiment: In vivo protective test, Botrytis cinerea (gray mold in gherkins). The following applies: application rate 500 ppm, gherkin plants, evaluation 4-5 days after infection, 0% = control, 100% = no infection. Here is the method: To produce an appropriate active ingredient formulation, active ingredient is mixed with acetone/Tween/DMSO and diluted with water to the appropriate concentration. Gherkin plants (Vert petit de Paris) are cultivated in 50/50 peat/pozzolan substrate at 24° C. and sprayed at the Z11 stage with the active ingredient formulation specified above. Plants which serve as a control are treated with an aqueous solution without active ingredient. After 24 hours, the plants are sprayed with a spore suspension of Botrytis cinerea (50 000 spores/ml). The spores are suspended in a nutrient solution consisting of 10 g/L PDB, 50 g/L D-Fructose, 2 g/L NH4NO3 and 1 g/L KH2PO4. The inoculated gherkin plants are incubated at 17° C. and at 80% relative air humidity.

The next experiment has as its system Phytophthora infestans. The experiment is classed as in vivo. The conditions noted are these: application rate 500 ppm; protective, tomato plants; evaluation 5 days after infection; 0% = control, 100% = no infection.
The subject of the next experiment is Sphaerotheca fuliginea. Nature of the experiment: In vivo protective test, Sphaerotheca fuliginea (powdery mildew in gherkins). The conditions noted are these: application rate 500 ppm, gherkin plants, evaluation 12 days after inoculation, 0% = control, 100% = no infection. Here is the method: Example: In vivo protective test, Sphaerotheca fuliginea (powdery mildew in gherkins) To produce an appropriate active ingredient formulation, active ingredient is mixed with acetone/Tween/DMSO and diluted with water to the appropriate concentration. Gherkin plants (cultivar: Vert petit de Paris) are cultivated in 50/50 peat/pozzolan substrate at 24° C. and sprayed at the Z11 cotyledon stage with the active ingredient formulation specified above. Plants which serve as a control are treated with an aqueous solution without active ingredient. After 24 hours, the plants are sprayed with a spore suspension of Sphaerotheca fuliginea (100 000 spores/ml). The spores are collected from infected plants. The inoculated plants are placed at 20/25° C. and at 60/70% relative humidity.

Another experiment has as its system Septoria tritici. Nature of the experiment: In vivo protective test, Septoria tritici (blotch in wheat). The conditions noted are these: application rate 500 ppm, wheat plants, evaluation 21-28 days after inoculation, 0% = control, 100% = no infection. Here is the method:
To produce an appropriate active ingredient formulation, active ingredient is mixed with acetone/Tween/DMSO and diluted with water to the appropriate concentration. Wheat plants (cultivar: Scipion) are cultivated in 50/50 peat/pozzolan substrate at 22° C. (12 h)/20° C. (12 h) and sprayed at the 1-leaf stage (height 10 cm) with the active ingredient formulation specified above. Control plants are sprayed with an aqueous solution without added active ingredient. After 24 hours, the plants are sprayed with a spore suspension of cryopreserved Septoria tritici (500 000 spores/ml).

For another experiment, the system named is Venturia inaequalis. Description: Venturia test (apple)/protective. The conditions noted are these: Venturia inaequalis on apple, protective, active ingredient concentration 100 ppm, 10 days after inoculation.
A further experiment relates to Plasmopara viticola. Description: Plasmopara test (grapevine)/protective. The format is in vivo. The conditions noted are these: Plasmopara viticola on grapevine, protective, active ingredient concentration 100 ppm, 6 days after inoculation. Here is the method: The plants are then moistened and placed in an incubation cabin for 1 day.

Description for Venturia inaequalis: • Solvents: 24.5 parts by weight of acetone • 24.5 parts by weight of dimethylacetamide • Emulsifier: 1 part by weight of alkylaryl polyglycol ether
To produce an appropriate active ingredient formulation, 1 part by weight of active ingredient is mixed with the stated amounts of solvent and emulsifier, and the concentrate is diluted with water to the desired concentration.
To test for protective efficacy, young plants are sprayed with the active ingredient formulation at the stated application rate. After the spray coating has dried on, the plants are inoculated with an aqueous conidia suspension of the apple scab pathogen Venturia inaequalis and then remain in an incubation cabin at about 20° C. and 100% relative air humidity for 1 day.
The plants are then placed in a greenhouse at about 21° C. and a relative air humidity of about 90%.
Evaluation follows 10 days after the inoculation.

As to `COCC(C)NC(=O)C1(OC)CC(c2cc(F)cc(F)c2)=NO1` (single isomer, unassigned) [1.11-19 D1], the “Efficacy [%]” value in the experiment on Botrytis cinerea, in the experiment on Phytophthora infestans, in the experiment on Sphaerotheca fuliginea and with Septoria tritici was 100% in each case.
As for `COCC(C)NC(=O)C1(OC)CC(c2cc(Cl)cc(Cl)c2)=NO1` (single isomer, unassigned) [1.20-19 D2], the “Efficacy [%]” value in the experiment on Botrytis cinerea, with Phytophthora infestans, in the experiment on Sphaerotheca fuliginea and in the experiment with Septoria tritici was 100% throughout.
On to `CCn1cc(CNC(=O)C2(OC)CC(c3cccc(Cl)c3)=NO2)cn1` (centres unmarked) [Compound 1.3-206], for which the “Efficacy [%]” value with Sphaerotheca fuliginea is on record as 94%; in the experiment on Septoria tritici, 100%.
On to `CCOC(=O)CC(C)NC(=O)C1(OC)CC(c2cccc(CC)c2)=NO1` (centres unmarked) [Compound 1.6-96], for which the “Efficacy [%]” value in the experiment with Botrytis cinerea was determined as 95%; in the experiment with Septoria tritici it was 75%.
For the molecule `COc1cccc(C2=NOC(OC)(C(=O)NCc3ccc(Cl)nc3)C2)c1` (centres unmarked) [Compound 1.7-110], the “Efficacy [%]” value with Botrytis cinerea and in the experiment with Septoria tritici was 100% in each case.
Consider `COC1(C(=O)NCc2ccc(Cl)nc2)CC(c2cc(F)cc(F)c2)=NO1` (centres unmarked) [Compound 1.11-110], for which the “Efficacy [%]” value is on record as 90% in the experiment on Botrytis cinerea, 100% in the experiment with Phytophthora infestans, 78% in the experiment on Sphaerotheca fuliginea and 100% in the experiment with Septoria tritici.
As for `COC1(C(=O)NCc2nc(C)cc(C)n2)CC(c2cc(F)cc(F)c2)=NO1` (centres unmarked) [Compound 1.11-189], the “Efficacy [%]” value in the experiment on Phytophthora infestans came to 100%.
With `COC1(C(=O)NCc2cccnc2Cl)CC(c2cc(F)cc(F)c2)=NO1` (centres unmarked) [Compound 1.11-238], the “Efficacy [%]” value with Botrytis cinerea came out at 100%; in the experiment on Phytophthora infestans it was 99%; with Sphaerotheca fuliginea, 83%; with Septoria tritici it was 100%.
In the case of `COC1(C(=O)NCc2ccnc(Cl)c2)CC(c2cc(C)cc(F)c2)=NO1` (centres unmarked) [Compound 1.14-136], the “Efficacy [%]” value with Botrytis cinerea is 88%.
Turning to `CCn1cc(CNC(=O)C2(OC)CC(c3cc(C)cc(F)c3)=NO2)cn1` (centres unmarked) [Compound 1.14-206], the “Efficacy [%]” value in the experiment with Botrytis cinerea stood at 100%; in the experiment with Phytophthora infestans, 100%; with Sphaerotheca fuliginea it was 98%; in the experiment on Septoria tritici, 100%.
In the case of `CCOC(=O)CCNC(=O)C1(OC)CC(c2cc(F)cc(OC)c2)=NO1` (centres unmarked) [Compound 1.16-94], in the experiment on Botrytis cinerea, the “Efficacy [%]” value is reported as 75%.
On to `CCOC(=O)CC(C)NC(=O)C1(OC)CC(c2cc(F)cc(OC)c2)=NO1` (centres unmarked) [Compound 1.16-96], for which the “Efficacy [%]” value in the experiment with Botrytis cinerea amounted to 85%; in the experiment on Sphaerotheca fuliginea it was 78%; in the experiment with Septoria tritici, 88%.
On to `COc1cc(F)cc(C2=NOC(OC)(C(=O)NCc3ccc(Cl)nc3)C2)c1` (centres unmarked) [Compound 1.16-110], for which the “Efficacy [%]” value with Botrytis cinerea came to 100%; in the experiment with Sphaerotheca fuliginea, 89%; in the experiment on Septoria tritici it was 100%.
Take `CCn1cc(CNC(=O)C2(OC)CC(c3cc(F)cc(C(F)(F)F)c3)=NO2)cn1` (centres unmarked) [Compound 1.18-206]: the “Efficacy [%]” value was found to be 100% with Botrytis cinerea, 90% in the experiment with Phytophthora infestans and 95% in the experiment on Sphaerotheca fuliginea.
In the case of `COC1(C(=O)NC(C)C)CC(c2cc(Cl)cc(Cl)c2)=NO1` (centres unmarked) [Compound 1.20-5], the “Efficacy [%]” value with Venturia inaequalis was 96%; with Plasmopara viticola, 99%.
For `COC1(C(=O)NC2(C#N)CC2)CC(c2cc(Cl)cc(Cl)c2)=NO1` (centres unmarked) [Compound 1.20-64], the “Efficacy [%]” value in the experiment with Botrytis cinerea amounted to 70%; in the experiment on Phytophthora infestans, 100%; in the experiment with Sphaerotheca fuliginea, 98%; in the experiment on Septoria tritici, 100%.
Turning to `COC1(C(=O)NCc2ccc(Cl)nc2)CC(c2cc(Cl)cc(Cl)c2)=NO1` (centres unmarked) [Compound 1.20-110], the “Efficacy [%]” value in the experiment on Botrytis cinerea was found to be 83%; in the experiment with Septoria tritici, 100%.
Consider `COC1(C(=O)NCc2ccncc2)CC(c2cc(Cl)cc(Cl)c2)=NO1` (centres unmarked) [Compound 1.20-135], for which the results for the “Efficacy [%]” value with Botrytis cinerea, with Sphaerotheca fuliginea and in the experiment on Septoria tritici were 100%, 98% and 100%, respectively.
With `C=CCNC(=O)C1(OC)CC(c2cc(Cl)cc(OC(F)(F)F)c2)=NO1` (centres unmarked) [Compound 1.25-16], the entries for the “Efficacy [%]” value with Botrytis cinerea, in the experiment on Sphaerotheca fuliginea and in the experiment with Septoria tritici were 100%, 95% and 97%, respectively.
In the case of `COC1(C(N)=O)CC(c2cc(Br)cc(OC(F)(F)F)c2)=NO1` (centres unmarked) [Compound 1.32-1], the “Efficacy [%]” value in the experiment on Septoria tritici is listed as 98%.
For the molecule `COC1(C(=O)NC2CC2)CC(c2cc(Br)cc(OC(F)(F)F)c2)=NO1` (centres unmarked) [Compound 1.32-60], the “Efficacy [%]” value in the experiment with Botrytis cinerea, with Sphaerotheca fuliginea and with Septoria tritici was 100% throughout.
Turning to `CCn1cc(CNC(=O)C2(OC)CC(c3cc(Br)cc(OC(F)(F)F)c3)=NO2)cn1` (centres unmarked) [Compound 1.32-206], the entries for the “Efficacy [%]” value with Botrytis cinerea and in the experiment on Septoria tritici were 96% and 100%, respectively.
Take `COC1(C(=O)NC2CC2)CC(c2cc(Br)cc(C(F)(F)F)c2)=NO1` (centres unmarked) [Compound 1.33-60]: the “Efficacy [%]” value in the experiment on Botrytis cinerea, with Sphaerotheca fuliginea and with Septoria tritici was 100% in each case.
`COC(=O)CCCNC(=O)C1(OC)CC(c2cc(Br)cc(C(F)(F)F)c2)=NO1` (centres unmarked) [Compound 1.33-102]: the “Efficacy [%]” value in the experiment with Sphaerotheca fuliginea and in the experiment on Septoria tritici was 100% throughout.
For `CCOC1(C(=O)NCc2cnn(CC)c2)CC(c2cc(F)cc(F)c2)=NO1` (centres unmarked) [Compound 2.11-206], the “Efficacy [%]” value in the experiment on Phytophthora infestans is 100%; with Septoria tritici, 83%.
